# According to PubChem BioAssay AID330 (DTP/NCI, 2004):
# “And” between values parts separate entries of the source, which are not always exact repeats. Equal entries are not always repeated. Toxic doses and inconclusive results are not listed.
# Test system: P388 leukemia ip, CD2F1 mice, survival T/C
# Experiment: NCI In Vivo Anticancer Drug Screen. Data for tumor model P388 Leukemia (intraperitoneal) in CD2F1 (CDF1) mice
# Settings: endpoint: median survival time, higher = longer survival
# Method in brief: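 Mice carrying the transplanted tumor received test compound or vehicle. Survival was recorded in each group, and the value is the treated-group measurement divided by that of the vehicle-treated control group.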
# [1] = dose: 50.0 mg/kg/injection, schedule: Q01DX005 (ip), vehicle: saline with Tween-80
# [2] = dose: 100.0 mg/kg/injection, schedule: Q01DX005 (ip), vehicle: saline with Tween-80
# [3] = dose: 200.0 mg/kg/injection, schedule: Q01DX005 (ip), vehicle: saline with Tween-80
# [4] = dose: 50.0 mg/kg/injection, schedule: Q01DX009 (ip), vehicle: saline with Tween-80
# [5] = dose: 100.0 mg/kg/injection, schedule: Q01DX009 (ip), vehicle: saline with Tween-80
# [6] = dose: 200.0 mg/kg/injection, schedule: Q01DX009 (ip), vehicle: saline with Tween-80
# [7] = dose: 8.0 mg/kg/injection, schedule: Q01DX009 (ip), vehicle: Klucel (hydroxypropylcellulose) (HPC)
# [8] = dose: 16.0 mg/kg/injection, schedule: Q01DX009 (ip), vehicle: Klucel (hydroxypropylcellulose) (HPC)
# [9] = dose: 32.0 mg/kg/injection, schedule: Q01DX009 (ip), vehicle: Klucel (hydroxypropylcellulose) (HPC)
# [10] = dose: 100.0 mg/kg/injection, schedule: Q04DX002 (ip), vehicle: saline with Tween-80
# [11] = dose: 200.0 mg/kg/injection, schedule: Q04DX002 (ip), vehicle: saline with Tween-80
# [12] = dose: 25.0 mg/kg/injection, schedule: Q01DX009 (ip), vehicle: saline with Tween-80
# [13] = dose: 100.0 mg/kg/injection, schedule: Q01DX005 (ip), vehicle: Klucel (hydroxypropylcellulose) (HPC)
structure (smiles),measurement,setting,value
N[C@H](C(=O)O)[C@H]1ON=C(Cl)[C@@H]1O,T/C,"dose: 0.13 mg/kg/injection, schedule: Q01DX009 (ip), vehicle: saline",104 % of control and 98 % of control
same,T/C,"dose: 0.25 mg/kg/injection, schedule: Q01DX009 (ip), vehicle: saline",106 % of control and 113 % of control
same,T/C,"dose: 0.5 mg/kg/injection, schedule: Q01DX009 (ip), vehicle: saline",112 % of control
same,T/C,"dose: 1.0 mg/kg/injection, schedule: Q01DX009 (ip), vehicle: saline",117 % of control and 121 % of control
same,T/C,"dose: 2.0 mg/kg/injection, schedule: Q01DX009 (ip), vehicle: saline",124 % of control
same,T/C,"dose: 4.0 mg/kg/injection, schedule: Q01DX009 (ip), vehicle: saline",153 % of control
same,T/C,"dose: 8.0 mg/kg/injection, schedule: Q01DX009 (ip), vehicle: saline",153 % of control
same,T/C,"dose: 16.0 mg/kg/injection, schedule: Q01DX009 (ip), vehicle: saline",198 % of control
CC(C)CC(NC(=O)C(CC(C)C)NC(=O)OCc1ccccc1)C(=O)O (stereo not given),T/C,[1],100 % of control
same,T/C,[2],102 % of control
same,T/C,[3],94 % of control
O=C(CCCl)Oc1ccc(Br)cc1,T/C,"dose: 100.0 mg/kg/injection, schedule: Q01DX009 (ip), vehicle: saline sonified",111 % of control
same,T/C,"dose: 200.0 mg/kg/injection, schedule: Q01DX009 (ip), vehicle: saline sonified",100 % of control
same,T/C,"dose: 400.0 mg/kg/injection, schedule: Q01DX009 (ip), vehicle: saline sonified",94 % of control
O=C(O)c1ccccc1-c1ccccc1[N+](=O)[O-],T/C,"dose: 50.0 mg/kg/injection, schedule: Q01DX009 (ip), vehicle: saline",88 % of control
same,T/C,"dose: 100.0 mg/kg/injection, schedule: Q01DX009 (ip), vehicle: saline",97 % of control
same,T/C,"dose: 200.0 mg/kg/injection, schedule: Q01DX009 (ip), vehicle: saline",97 % of control
S=C(SCc1ccccc1)N1CCN(C(=S)SCc2ccccc2)CC1,T/C,[4],89 % of control
same,T/C,[5],91 % of control
same,T/C,[6],91 % of control
Nc1cccc2c1C(=O)c1nccnc1C2=O,T/C,"dose: 100.0 mg/kg/injection, schedule: Q01DX001 (ip), vehicle: Klucel + Tween-80",98 % of control
same,T/C,"dose: 200.0 mg/kg/injection, schedule: Q01DX001 (ip), vehicle: Klucel + Tween-80",98 % of control
same,T/C,"dose: 400.0 mg/kg/injection, schedule: Q01DX001 (ip), vehicle: Klucel + Tween-80",97 % of control
C/C(=C\Cc1cc(O)c(C)cc1O)CC/C=C(\C)Cc1cc(C)co1,T/C,"dose: 4.0 mg/kg/injection, schedule: Q01DX009 (ip), vehicle: Klucel (hydroxypropylcellulose) (HPC)",93 % of control
same,T/C,[7],101 % of control
same,T/C,[8],101 % of control
same,T/C,[9],108 % of control
O=C(O)c1cc2oc(-c3ccccc3)cc2[nH]1,T/C,"dose: 60.0 mg/kg/injection, schedule: Q01DX005 (ip), vehicle: saline with Tween-80",94 % of control
same,T/C,"dose: 120.0 mg/kg/injection, schedule: Q01DX005 (ip), vehicle: saline with Tween-80",92 % of control
CC(=O)OC1CSc2ccccc2N(C(C)=O)C1 (stereo not given),T/C,"dose: 60.0 mg/kg/injection, schedule: Q01DX005 (ip), vehicle: Klucel (hydroxypropylcellulose) (HPC)",104 % of control
same,T/C,"dose: 120.0 mg/kg/injection, schedule: Q01DX005 (ip), vehicle: Klucel (hydroxypropylcellulose) (HPC)",99 % of control
same,T/C,"dose: 240.0 mg/kg/injection, schedule: Q01DX005 (ip), vehicle: Klucel (hydroxypropylcellulose) (HPC)",107 % of control
Nc1nnc2nc(CC(=O)/C=C/c3ccccc3)/c(=C/C(=O)/C=C/c3ccccc3)n12,T/C,[10],104 % of control
same,T/C,[11],107 % of control
same,T/C,"dose: 400.0 mg/kg/injection, schedule: Q04DX002 (ip), vehicle: saline with Tween-80",100 % of control
O=[C-]C(F)(F)F.[C-]#[O+].[C-]#[O+].[C-]#[O+].[C-]#[O+].[C-]#[O+].[Mn],T/C,"dose: 50.0 mg/kg/injection, schedule: Q01DX001 (ip), vehicle: other",100 % of control
same,T/C,"dose: 100.0 mg/kg/injection, schedule: Q01DX001 (ip), vehicle: other",100 % of control
CCOC(=O)C(CC)c1ccncc1C (stereo not given),T/C,"dose: 25.0 mg/kg/injection, schedule: Q04DX002 (ip), vehicle: saline with Tween-80",106 % of control
same,T/C,"dose: 50.0 mg/kg/injection, schedule: Q04DX002 (ip), vehicle: saline with Tween-80",114 % of control
same,T/C,[10],118 % of control
same,T/C,[11],110 % of control
Nc1nc2nc[nH]c2c(=O)[nH]1,T/C,[12],97 % of control
same,T/C,[4],98 % of control
same,T/C,[5],90 % of control
same,T/C,"dose: 100.0 mg/kg/injection, schedule: Q01DX009 (ip), vehicle: suspension in saline",97 % of control
same,T/C,[6],90 % of control
same,T/C,"dose: 200.0 mg/kg/injection, schedule: Q01DX009 (ip), vehicle: suspension in saline",92 % of control
same,T/C,"dose: 400.0 mg/kg/injection, schedule: Q01DX009 (ip), vehicle: suspension in saline",87 % of control
Clc1ccc2sc(-c3ccccc3)nc2c1,T/C,[4],106 % of control
same,T/C,[5],103 % of control
same,T/C,[6],100 % of control
same,T/C,"dose: 400.0 mg/kg/injection, schedule: Q01DX009 (ip), vehicle: saline with Tween-80",100 % of control
C=C1C(=O)OC2CC3(CO3)C3CC(OC(C)=O)C(=C)C3(O)CC12 (stereo not given),T/C,[7],99 % of control
same,T/C,[8],116 % of control
same,T/C,[9],119 % of control
same,T/C,"dose: 64.0 mg/kg/injection, schedule: Q01DX009 (ip), vehicle: Klucel (hydroxypropylcellulose) (HPC)",114 % of control
CCOC(=O)N1C=CC(C(=O)OC)=CC=C1C(=O)OC,T/C,"dose: 50.0 mg/kg/injection, schedule: Q01DX005 (ip), vehicle: Klucel (hydroxypropylcellulose) (HPC)",98 % of control
same,T/C,[13],95 % of control
same,T/C,"dose: 200.0 mg/kg/injection, schedule: Q01DX005 (ip), vehicle: Klucel (hydroxypropylcellulose) (HPC)",94 % of control
Cc1cc(C)n2ncc(Br)c2n1,T/C,[1],100 % of control
same,T/C,[2],100 % of control
same,T/C,[3],94 % of control
COCCOCCOCCOCCO,T/C,[1],102 % of control
same,T/C,[2],100 % of control
same,T/C,[3],104 % of control
O=NN(CCBr)C(=O)Nc1ccccc1,T/C,"dose: 6.0 mg/kg/injection, schedule: Q01DX009 (ip), vehicle: saline with Tween-80",154 % of control
same,T/C,"dose: 12.0 mg/kg/injection, schedule: Q01DX009 (ip), vehicle: saline with Tween-80",177 % of control
same,T/C,[12],177 % of control
same,T/C,"dose: 37.5 mg/kg/injection, schedule: Q01DX009 (ip), vehicle: saline with Tween-80",175 % of control
same,T/C,"dose: 66.0 mg/kg/injection, schedule: Q04DX003 (ip), vehicle: saline",118 % of control
same,T/C,"dose: 100.0 mg/kg/injection, schedule: Q04DX003 (ip), vehicle: saline",109 % of control
same,T/C,"dose: 150.0 mg/kg/injection, schedule: Q04DX003 (ip), vehicle: saline",100 % of control
COC1(OC)C(Cl)=C(Cl)C(Cl)=C1Cl,T/C,"dose: 6.25 mg/kg/injection, schedule: Q01DX009 (ip), vehicle: saline with Tween-80",95 % of control
same,T/C,"dose: 12.5 mg/kg/injection, schedule: Q01DX009 (ip), vehicle: saline with Tween-80",118 % of control
same,T/C,[12],113 % of control
COC(=O)C1CSC(c2c(COP(=O)(O)O)cnc(C)c2O)N1 (stereo not given),T/C,"dose: 100.0 mg/kg/injection, schedule: Q01DX001 (ip), vehicle: saline",103 % of control
same,T/C,"dose: 200.0 mg/kg/injection, schedule: Q01DX001 (ip), vehicle: saline",105 % of control
same,T/C,"dose: 400.0 mg/kg/injection, schedule: Q01DX001 (ip), vehicle: saline",96 % of control
CC(=NCCCCN=C(C)c1cc(C)cc([N+](=O)[O-])c1O)c1cc(C)cc([N+](=O)[O-])c1O.[Co],T/C,"dose: 100.0 mg/kg/injection, schedule: Q05DX002 (ip), vehicle: saline with Tween-80",92 % of control
same,T/C,"dose: 200.0 mg/kg/injection, schedule: Q05DX002 (ip), vehicle: saline with Tween-80",98 % of control
same,T/C,"dose: 400.0 mg/kg/injection, schedule: Q05DX002 (ip), vehicle: saline with Tween-80",92 % of control
S=C1NCCNC(=S)SS1,T/C,[13],108 % of control
O=C(Nc1cccc2c(OC(=O)C(Cl)Cl)c(N=Nc3ccc(S(=O)(=O)Nc4nccs4)cc3)cc(N=Nc3ccc(S(=O)(=O)Nc4nccs4)cc3)c12)C(Cl)Cl,T/C,[4],109 % of control and 100 % of control and 104 % of control
same,T/C,[5],108 % of control and 103 % of control and 106 % of control
same,T/C,[6],107 % of control
